In patent publication US6974831B2, “sPLA2 inhibitors” (Eli Lilly and Company, priority 2000, dated 2005) one finds IC50 and melting point data, which are given here for 21 molecules.

For orientation: IC50 means the concentration needed to halve the response being measured. As usually defined, the melting point is the temperature, or range, at which the solid turns liquid.

Series [1] has as its target T1, recombinant human secreted phospholipase A2 (Homo sapiens, UniProt P14555).
T1 sequence (P14555 21-144): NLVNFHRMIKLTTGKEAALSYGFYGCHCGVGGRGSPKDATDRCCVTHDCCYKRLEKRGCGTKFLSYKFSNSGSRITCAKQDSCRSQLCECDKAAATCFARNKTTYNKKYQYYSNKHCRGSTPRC
The series can be described thus: chromogenic assay of sPLA2 inhibition (diheptanoyl thio-PC / DTNB, 96 well microtiter plates). It counts as biochemical. The note with it: absorbance at 405 nanometers, 40° C. for 30 minutes, pH 7.5, titrated in triplicate and averaged. The text has this:
The following chromogenic assay procedure was used to identify and evaluate inhibitors of recombinant human secreted phospholipase A2. The assay described herein has been adapted for high volume screening using 96 well microtiter plates. A general description of this assay method is found in the article, “Analysis of Human Synovial Fluid Phospholipase A2 on Short Chain Phosphatidylcholine-Mixed Micelles: Development of a Spectrophotometric Assay Suitable for a Microtiterplate Reader”, by Laure J. Reynolds, Lori L. Hughes, and Edward A Dennis, Analytical Biochemistry, 204, pp. 190-197, 1992 (the disclosure of which is incorporated herein by reference):
REACTION BUFFER— • CaCl2.2H2O (1.47 g/L) • KCl (7.455 g/L) • Bovine Serum Albumin (fatty acid free) (1 g/L) • (Sigma A-7030, product of Sigma • Chemical Co., St. Louis Mo., USA) • TRIS HCl (3.94 g/L) • pH 7.5 (adjust with NaOH)
ENZYME BUFFER— • 0.05 NaOAc.3H2O, pH 4.5 • 0.2 NaCl • Adjust pH to 4.5 with acetic acid
DTNB—5,5′-dithiobis-2-nitrobenzoic acid
RACEMIC DIHEPTANOYL THIO—PC • racemic 1,2-bis(heptanoylthio)-1,2-dideoxy-sn-glycero-3-phosphorylcholine • TRITON X-100™ prepare at 6.249 mg/ml in reaction buffer to equal […].
A measured volume of racemic dipheptanoyl thio PC supplied in chloroform at a concentration of 100 mg/ml is taken to dryness and redissolved in 10 millimolar TRITON X-100™ nonionic detergent aqueous solution. Reaction Buffer is added to the solution, then DTNB to give the Reaction Mixture.
The reaction mixture thus obtained contains 1 mM diheptanoly thio-PC substrate, 0.29 mm Triton X-100™ detergent, and 0.12 mm DTMB in a buffered aqueous solution at pH 7.5.
• 1. Add 0.2 ml reaction mixture to all wells; • 2. Add 10 ul test compound (or solvent blank) to appropriate wells, mix 20 seconds; • 3. Add 50 nanograms of sPLA2 (10 microliters) to appropriate wells; • 4. Incubate plate at 40° C. for 30 minutes; • 5. Read absorbance of wells at 405 nanometers with an automatic plate reader.
Tests were done in triplicate. Typically, compounds were tested at a final concentration of 5 ug/ml. […] Lack of color development at 405 nanometers evidenced inhibition. Compounds initially found to be active were re-assayed to confirm their activity and, if sufficiently active, IC50 values were determined. […] In all cases, % inhibition measured at 405 nanometers generated by enzyme reactions containing inhibitors relative to the uninhibited control reactions was determined. Each sample was titrated in triplicate and result values were averaged for plotting and calculation of IC50 values. IC50 values were determined by plotting log concentration versus inhibition values in the range from 10-90% inhibition.

As to `CCc1c(C(=O)C(N)=O)c2c(OCC(=O)OC)cc3c(c2n1Cc1ccccc1)CCC3` [Example 1, 2-[[3-(2-Amino-1,2-dioxoethyl)-2-ethyl-1-benzyl-1,6,7,8-tetrahydrocyclo-pent[g]indol-4-yl]oxy]acetic acid methyl ester], in series [1], the concentration for half-maximal inhibition (IC50) was determined as 0.108 µM.

As to `CCc1c(C(=O)C(N)=O)c2c(OCC(=O)O)cc3c(c2n1Cc1ccccc1)CCC3` [Example 2, 2-[[3-(2-Amino-1,2-dioxoethyl)-2-ethyl-1-benzyl-1,6,7,8-tetrahydrocyclo-pent[g]indol-4-yl]oxy]acetic acid], the IC50 in series [1] was 0.013 µM. The same measure, in the same setting: for `COC(=O)COc1cc2c(c3c1c(C(=O)C(N)=O)c(C)n3Cc1ccccc1)CCC2` [Example 3, 2-[[3-(2-Amino-1,2-dioxoethyl)-2-methyl-1-benzyl-1,6,7,8-tetrahydrocyclo-pent[g]indol-4-yl]oxy]acetic acid methyl ester] the value was 0.106 µM. Regarding `Cc1c(C(=O)C(N)=O)c2c(OCC(=O)O)cc3c(c2n1Cc1ccccc1)CCC3` [Example 4, 2-[[3-(2-Amino-1,2-dioxoethyl)-2-methyl-1-benzyl-1,6,7,8-tetrahydrocyclopent[g]indol-4-yl]oxy]acetic acid], the IC50 in series [1] stood at 0.01 µM. As for `Cc1c(C(=O)C(N)=O)c2c(OCC(=O)NS(=O)(=O)c3ccccc3)cc3c(c2n1Cc1ccccc1)CCC3` [Example 5, 2-[4-(2-Benzenesulfonylamino-2-oxoethoxy)-1-benzyl-2-methyl-1,6,7,8-tetrahydro-1-aza-as-indacen-3-yl]-2-oxoacetamide], the IC50 in series [1] came to 0.007 µM. Still for that read-out and setting: for `COC(=O)COc1cc2c(c3c1c(C(=O)C(N)=O)c(C)n3Cc1cccc(F)c1)CCC2` [Example 6, 2-[[3-(2-Amino-1,2-dioxoethyl)-2-methyl-1-(3-fluorobenzyl)-1,6,7,8-tetrahydrocyclopent[g]indol-4-yl]oxy]acetic Acid methyl ester] the value was 0.132 µM; for `Cc1c(C(=O)C(N)=O)c2c(OCC(=O)O)cc3c(c2n1Cc1cccc(F)c1)CCC3` [Example 7, 2-[[3-(2-Amino-1,2-dioxoethyl)-2-methyl-1-(3-fluorobenzyl)-1,6,7,8-tetrahydrocyclopent[g]indol-4-yl]oxy]acetic acid hydrate], 0.01 µM.

For `COC(=O)COc1cc2c(c3c1c(C(=O)C(N)=O)c(C)n3Cc1ccccc1F)CCC2` [Example 8, 2-[[3-(2-Amino-1,2-dioxoethyl)-2-methyl-1-(2-fluorobenzyl)-1,6,7,8-tetrahydrocyclopent[g]indol-4-yl]oxy]acetic acid methyl ester], the IC50 in series [1] is 0.073 µM. As for `Cc1c(C(=O)C(N)=O)c2c(OCC(=O)O)cc3c(c2n1Cc1ccccc1F)CCC3` [Example 9, 2-[[3-(2-Amino-1,2-dioxoethyl)-2-methyl-1-(2-fluorobenzyl)-1,6,7,8-tetrahydrocyclopent[g]indol-4-yl]oxy]acetic acid], the IC50 in series [1] was 0.009 µM. In turn, `COC(=O)COc1cc2c(c3c1c(C(=O)C(N)=O)c(C)n3Cc1ccc(F)cc1)CCC2` [Example 10, 2-[[3-(2-Amino-1,2-dioxoethyl)-2-methyl-1-(4-fluorobenzyl)-1,6,7,8-tetrahydrocyclopent[g]indol-4-yl]oxy]acetic acid methyl ester] displayed a melting point of 222 to 224 °C. Moreover, the IC50 in series [1] turned out to be 0.806 µM. With `Cc1c(C(=O)C(N)=O)c2c(OCC(=O)O)cc3c(c2n1Cc1ccc(F)cc1)CCC3` [Example 11, 2-[[3-(2-Amino-1,2-dioxoethyl)-2-methyl-1-(4-fluorobenzyl)-1,6,7,8-tetrahydrocyclopent[g]indol-4-yl]oxy]acetic acid], the IC50 in series [1] is 0.082 µM. Turning to `CCc1c(C(=O)C(N)=O)c2c(OCC(=O)OC)cc3c(c2n1Cc1ccccc1)CCCC3` [Example 12, 2-[[3-(2-Amino-1,2-dioxoethyl)-1-benzyl-2-ethyl-6,7,8,9-tetrahydro-1H-benz[g]indol-4-yl]oxy]acetic acid methyl ester], the IC50 in series [1] came to 0.1 µM. Still for that read-out and setting: then `CCc1c(C(=O)C(N)=O)c2c(OCC(=O)O)cc3c(c2n1Cc1ccccc1)CCCC3` [Example 13, 2-[[3-(2-Amino-1,2-dioxoethyl)-1-benzyl-2-ethyl-6,7,8,9-tetrahydro-1H-benz[g]indol-4-yl]oxy]acetic acid], with 0.011 µM; and `COC(=O)COc1cc2c(c3c1c(C(=O)C(N)=O)c(C)n3Cc1ccccc1)CCCC2` [Example 14, 2-[[3-(2-Amino-1,2-dioxoethyl)-1-benzyl-2-methyl-6,7,8,9-tetrahydro-1H-benz[g]indol-4-yl]oxy]acetic acid methyl ester], with 0.109 µM; and `Cc1c(C(=O)C(N)=O)c2c(OCC(=O)O)cc3c(c2n1Cc1ccccc1)CCCC3` [Example 15, 2-[[3-(2-Amino-1,2-dioxoethyl)-1-benzyl-2-methyl-6,7,8,9-tetrahydro-1H-benz[g]indol-4-yl]oxy]acetic acid], with 0.01 µM.

`COC(=O)COc1cc2c(c3c1c(C(=O)C(N)=O)c(C)n3Cc1ccccc1Br)CCC2` [Example 16, 2-[[3-(2-Amino-1,2-dioxoethyl)-2-methyl-1-(2-bromobenzyl)-1,6,7,8-tetrahydrocyclopent[g]indol-4-yl]oxy]acetic acid methyl ester]: in series [1], the IC50 is 0.453 µM. For `Cc1c(C(=O)C(N)=O)c2c(OCC(=O)O)cc3c(c2n1Cc1ccccc1Br)CCC3` [Example 17, 2-[[3-(2-Amino-1,2-dioxoethyl)-2-methyl-1-(2-bromobenzyl)-1,6,7,8-tetrahydrocyclopent[g]indol-4-yl]oxy]acetic acid], in series [1], the IC50 is 0.01 µM. With `COC(=O)COc1cc2c(c3c1c(C(=O)C(N)=O)c(C)n3Cc1ccccc1-c1ccccc1)CCC2` [Example 18, 2-[[3-(2-Amino-1,2-dioxoethyl)-2-methyl-1-(2-phenylbenzyl)-1,6,7,8-tetrahydrocyclopent[g]indol-4-yl]oxy]acetic acid methyl ester], in series [1], the IC50 is 0.19 µM. Same read-out and setting: for `Cc1c(C(=O)C(N)=O)c2c(OCC(=O)O)cc3c(c2n1Cc1ccccc1-c1ccccc1)CCC3` [Example 19, 2-[[3-(2-Amino-1,2-dioxoethyl)-2-methyl-1-(2-phenylbenzyl)-1,6,7,8-tetrahydrocyclopent[g]indol-4-yl]oxy]acetic acid] the value was 0.035 µM. Take `COC(=O)COc1cc2c(c3c1c(C(=O)C(N)=O)c(C)n3Cc1ccccc1-c1ccc(Br)s1)CCC2` [Example 20, 2-[[3-(2-amino-1,2-dioxoethyl)-1-[2-(5-bromothiophen-2-yl)benzyl]-2-methyl-1,6,7,8-tetrahydrocyclopent[g]indol-4-yl]oxy]acetic acid methyl ester]: in series [1], the IC50 was 0.638 µM. Still for that read-out and setting: then `Cc1c(C(=O)C(N)=O)c2c(OCC(=O)O)cc3c(c2n1Cc1ccccc1-c1ccc(Br)s1)CCC3` [Example 21, 2-[[3-(2-amino-1,2-dioxoethyl)-2-methyl-1-[2-(5-bromothiophen-2-yl)benzyl]-1,6,7,8-tetrahydrocyclopent[g]indol-4-yl]oxy]acetic acid], with 0.044 µM.
